{"source": "patent US10723716B2", "about": "“Alpha-helix mimetics as modulators of Abeta self-assembly” (New York University, priority 2016, dated 2020)", "key": {"N2a cells": {"test_system": "N2a cells", "assay": "Confocal fluorescence microscopy, cellular uptake", "assay_type": "cell-based, mouse", "details": "24 h incubation", "experimental": "N2a cells were seeded at a density of 5×10^4 cells/well in 500 μL complete medium in 4-chambered 35 mm glass bottom Cellview cell culture dishes (Greiner Bio-One, Monroe, N.C., USA). […] For mitochondrial colocalization experiments, 50 nM MitoTracker Red FM or MitoTracker Green FM (Thermo Fisher Scientific, Waltham, Mass., USA) was added to the chambers and incubated for 15 min. Thereafter, the medium was removed, the cells were washed with PBS to remove any extracellular peptide, inhibitor or organelle marker, and 300 μL phenol red- and serum-free medium was added to each chambers of the cell culture dish. Imaging was done on an Olympus Fluoview FV1000MPE Confocal/2—Photon microscope, using a 63× Plan-Apo/1.3 NA oil immersion objective with DIC capability. Image processing was done using the Fiji image processing software according to known methodology (Schindelin, J.; Arganda-Carreras, I.; Frise, E.; Kaynig, V.; Longair, M.; Pietzsch, T.; Preibisch, S.; Rueden, C.; Saalfeld, S.; Schmid, B.; Tinevez, J. Y.; White, D. J.; Hartenstein, V.; Eliceiri, K.; Tomancak, P.; Cardona, A. Nat. Methods 2012, 9, 676-682)."}, "Aβ42": {"target": "T1, Aβ42 (Homo sapiens, UniProt P05067)", "T1 construct": "Cleavage of APP results in several Aβ isoforms; The predominant species are Aβ42 and Aβ40; purchased Anaspec (Fremont, Calif., USA)", "T1 sequence (P05067 672-713 limits assumed)": "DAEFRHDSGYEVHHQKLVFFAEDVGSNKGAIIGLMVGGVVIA", "assay": "PICUP SDS-PAGE of Aβ42 oligomers", "assay_type": "biochemical", "details": "5 μM Aβ42, equimolar ratio", "experimental": "The reaction mixture was irradiated for 30 s using filament lamp (power=150 W) by keeping it 20 cm away from the bottom of the reaction tubes. The cross-linking reaction was then quenched immediately with dithiothreitol (1 M, 1 μL, Sigma Aldrich, St. Louis, Mo., USA). The samples were incubated on ice for 15 min. followed by the addition of SDS buffer. The samples were heated at 90° C. for 5 min. and then centrifuged. […] The samples were applied to Nu-PAGE electrophoresis in 12% Bis-Tris gels with SDS-PAGE buffer. The protein samples were stained with a silver stain kit from Sigma Aldrich (St. Louis, Mo., USA)."}, "Aβ40": {"target": "T2, Aβ40 (Homo sapiens, UniProt P05067)", "T2 construct": "Cleavage of APP results in several Aβ isoforms; The predominant species are Aβ42 and Aβ40; purchased Anaspec (Fremont, Calif., USA)", "T2 sequence (P05067 672-711 limits assumed)": "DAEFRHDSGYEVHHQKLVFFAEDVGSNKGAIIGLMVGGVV", "assay": "Transmission electron microscopy (TEM) of Aβ40", "assay_type": "biochemical"}}}
{"smiles": "COC(=O)c1ccc(NC(=O)c2ccc(NC(=O)c3ccc([N+](=O)[O-])c(OCc4ccccc4)n3)c(OCCCN)n2)c(OCCCN)n1", "note": "[ADH-41]", "values": [{"measurement": "cell permeability", "setting": "N2a cells", "value": "good cell permeability"}, {"measurement": "higher order oligomers of Aβ42 (PICUP, SDS-PAGE)", "setting": "Aβ42; 24 h and 36 h", "value": "sparse populations"}, {"measurement": "higher order oligomers of Aβ42 (PICUP, SDS-PAGE)", "setting": "Aβ42; up to 12 h", "value": "no higher order oligomers"}, {"measurement": "fiber formation of Aβ40 seen by TEM", "setting": "Aβ40; Aβ40 incubated with ADH-41, after 5 days", "value": "scant evidence of fiber formation"}, {"measurement": "aggregates of Aβ40 seen by TEM", "setting": "Aβ40; equimolar ratio", "value": "No aggregates were visible"}, {"measurement": "Aβ40 species seen by TEM", "setting": "Aβ40; substoichiometric ratio 1:0.1 (Aβ40:ADH-41)", "value": "short protofibrils"}]}
